Among the data in ChEMBL document CHEMBL1909046, “DrugMatrix in vitro pharmacology data” are IC50 and Ki values, retold here.

By IC50 is commonly meant the concentration that inhibits the measured activity by half. By Ki is commonly meant a measure of affinity in units of concentration, obtained from inhibition or displacement.

For one test, the target named is T1, Estrogen receptor (Homo sapiens, UniProt P03372).
T1 sequence (P03372 whole entry): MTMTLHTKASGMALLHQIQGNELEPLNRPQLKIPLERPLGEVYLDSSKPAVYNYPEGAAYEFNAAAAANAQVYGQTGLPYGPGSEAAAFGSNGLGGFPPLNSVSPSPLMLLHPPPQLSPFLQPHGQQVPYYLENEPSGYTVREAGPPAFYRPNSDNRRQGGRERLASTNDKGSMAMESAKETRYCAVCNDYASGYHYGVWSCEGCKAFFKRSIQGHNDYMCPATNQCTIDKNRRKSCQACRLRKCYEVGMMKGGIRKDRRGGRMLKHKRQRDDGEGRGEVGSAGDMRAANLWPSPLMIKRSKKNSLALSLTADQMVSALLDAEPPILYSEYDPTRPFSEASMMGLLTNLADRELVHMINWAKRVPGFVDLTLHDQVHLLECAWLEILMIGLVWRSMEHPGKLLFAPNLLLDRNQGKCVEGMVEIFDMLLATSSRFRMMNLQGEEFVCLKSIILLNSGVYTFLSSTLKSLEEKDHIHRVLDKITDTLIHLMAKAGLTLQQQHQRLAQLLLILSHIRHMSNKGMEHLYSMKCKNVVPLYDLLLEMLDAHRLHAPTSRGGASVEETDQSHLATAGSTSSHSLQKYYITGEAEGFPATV
The conditions noted are these: sf9.

Test [1] is described as follows: DRUGMATRIX: Calcium Channel Type L, Dihydropyridine radioligand binding (ligand: [3H] Nitrendipine). It is filed as cell membranes, Rattus norvegicus, Wistar, Cerebral cortex, Membrane. Conditions: Not Active = under 50% inhibition at 10 µM.
In the next test the target is D(3) dopamine receptor (Homo sapiens, UniProt P35462). In words: DRUGMATRIX: Dopamine D3 radioligand binding (ligand: [3H] Spiperone). It is filed as cell membranes, CHO, Membrane. The conditions noted are these: for Ki: read-out: Ki.
The target in test [2] is T2, C-X-C chemokine receptor type 1 (Homo sapiens, UniProt P25024). Also: in other assays of this panel Not Active means under 50% inhibition at 10 µM.
T2 sequence (P25024 whole entry): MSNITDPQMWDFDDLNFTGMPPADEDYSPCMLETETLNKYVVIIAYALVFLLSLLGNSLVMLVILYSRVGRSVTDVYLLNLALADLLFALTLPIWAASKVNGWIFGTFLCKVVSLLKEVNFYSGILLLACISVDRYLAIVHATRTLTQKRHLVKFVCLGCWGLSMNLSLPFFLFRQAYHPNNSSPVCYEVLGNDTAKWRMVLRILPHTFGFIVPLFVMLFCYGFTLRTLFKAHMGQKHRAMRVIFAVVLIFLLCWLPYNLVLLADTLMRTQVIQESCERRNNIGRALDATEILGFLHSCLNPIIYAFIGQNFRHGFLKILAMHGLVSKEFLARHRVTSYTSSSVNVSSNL

Test [3] has as its target Sodium-dependent noradrenaline transporter (Homo sapiens, UniProt P23975). In words: DRUGMATRIX: Norepinephrine Transporter radioligand binding (ligand: [125I] RTI-55). It is filed as cell membranes, MDCK, Membrane. Conditions: Not Active = under 50% inhibition at 10 µM; for Ki: read-out: Ki.
A short description of test [4]: DRUGMATRIX: GABAA, Flunitrazepam, Central radioligand binding (ligand: [3H] Flunitrazepam). In kind it is cell membranes, Rattus norvegicus, Wistar, Brain, Membrane. Conditions: Not Active = under 50% inhibition at 10 µM.
For a further test, the target named is Estrogen receptor beta (Homo sapiens, UniProt Q92731). The conditions noted are these: sf9. Also: in other assays of this panel Not Active means under 50% inhibition at 10 µM.
Estrogen receptor beta, sequence (Q92731 whole entry): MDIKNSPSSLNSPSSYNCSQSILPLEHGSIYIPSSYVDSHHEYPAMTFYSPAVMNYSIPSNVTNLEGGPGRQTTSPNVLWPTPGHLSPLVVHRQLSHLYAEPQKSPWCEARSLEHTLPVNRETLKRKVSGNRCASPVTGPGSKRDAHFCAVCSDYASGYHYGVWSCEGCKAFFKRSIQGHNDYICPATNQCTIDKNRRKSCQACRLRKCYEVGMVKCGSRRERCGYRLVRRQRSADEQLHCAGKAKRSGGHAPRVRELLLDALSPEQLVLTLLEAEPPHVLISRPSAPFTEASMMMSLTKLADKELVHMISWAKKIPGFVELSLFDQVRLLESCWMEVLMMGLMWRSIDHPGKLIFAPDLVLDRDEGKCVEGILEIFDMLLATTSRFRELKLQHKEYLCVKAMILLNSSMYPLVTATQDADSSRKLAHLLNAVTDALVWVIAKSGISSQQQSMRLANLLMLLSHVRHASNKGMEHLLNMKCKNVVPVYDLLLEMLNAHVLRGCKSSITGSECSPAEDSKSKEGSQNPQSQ

D(3) dopamine receptor, sequence (P35462 whole entry): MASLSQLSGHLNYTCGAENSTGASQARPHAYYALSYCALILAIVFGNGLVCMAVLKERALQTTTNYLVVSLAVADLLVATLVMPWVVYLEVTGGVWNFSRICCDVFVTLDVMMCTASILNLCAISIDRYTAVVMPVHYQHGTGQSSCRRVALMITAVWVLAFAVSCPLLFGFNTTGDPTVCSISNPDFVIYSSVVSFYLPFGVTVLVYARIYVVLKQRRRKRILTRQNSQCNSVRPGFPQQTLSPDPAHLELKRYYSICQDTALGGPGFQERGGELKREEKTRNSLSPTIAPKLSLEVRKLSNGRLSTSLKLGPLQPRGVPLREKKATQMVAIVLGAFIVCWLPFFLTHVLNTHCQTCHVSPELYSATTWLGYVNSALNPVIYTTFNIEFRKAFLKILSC
Sodium-dependent noradrenaline transporter, sequence (P23975 whole entry): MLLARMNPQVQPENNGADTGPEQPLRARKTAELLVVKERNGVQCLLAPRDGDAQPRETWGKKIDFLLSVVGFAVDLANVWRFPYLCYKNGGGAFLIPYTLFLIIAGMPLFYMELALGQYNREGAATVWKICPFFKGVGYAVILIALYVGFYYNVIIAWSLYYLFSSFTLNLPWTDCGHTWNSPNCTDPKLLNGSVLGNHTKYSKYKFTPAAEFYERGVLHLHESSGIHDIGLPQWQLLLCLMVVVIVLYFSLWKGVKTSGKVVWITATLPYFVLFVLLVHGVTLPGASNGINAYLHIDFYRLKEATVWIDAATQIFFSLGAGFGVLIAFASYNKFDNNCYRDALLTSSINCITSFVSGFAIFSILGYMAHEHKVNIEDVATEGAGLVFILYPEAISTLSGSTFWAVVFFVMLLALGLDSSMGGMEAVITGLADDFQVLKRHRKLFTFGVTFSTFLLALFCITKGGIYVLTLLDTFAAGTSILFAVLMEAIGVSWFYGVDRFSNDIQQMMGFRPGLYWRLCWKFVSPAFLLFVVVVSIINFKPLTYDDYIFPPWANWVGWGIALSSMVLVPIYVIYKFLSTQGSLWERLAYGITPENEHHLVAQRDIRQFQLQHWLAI

As to `CC1(COc2ccc(CC3SC(=O)NC3=O)cc2)CCCCC1` (stereo unspecified) [CIGLITAZONE], the IC50 entry against Estrogen receptor is “Not Active”; in test [1], “Not Active”; at D(3) dopamine receptor (read-out: IC50), 26.7 µM; in test [2] it was “Not Active”; in test [3] (read-out: IC50), 2.22 µM; in test [4], “Not Active”. Moreover, on Estrogen receptor beta, the IC50 entry is “Not Active”. Moreover, the inhibitory constant (Ki) entry in test [1] is “Not Active”; on D(3) dopamine receptor it was 9.07 µM; in test [3] it was 2.2 µM; in test [4], “Not Active”.

For the molecule `CC(C)Cc1ccc([C@H](C)C(=O)O)cc1` [DEXIBUPROFEN], the concentration for half-maximal inhibition (IC50) entry (at Estrogen receptor; in test [1]; at D(3) dopamine receptor (cho); in test [2]; in test [3] (mdck); in test [4]) was “Not Active” in each case. The concentration for half-maximal inhibition (IC50) entry against Estrogen receptor beta is given as “Not Active”. Besides, the inhibition constant Ki result in test [1] and in test [4] was “Not Active” throughout.

As for `COc1cc(/C=C/C(=O)O)ccc1O` [FERULATE], the IC50 entry (at Estrogen receptor; in test [1]; at D(3) dopamine receptor (cho); in test [2]; in test [3] (mdck); in test [4]) was “Not Active” each time. The IC50 entry at Estrogen receptor beta is “Not Active”. In addition, the Ki entry in test [1] and in test [4] was “Not Active” in each case.

Turning to `Nc1nc(F)nc2c1ncn2[C@@H]1O[C@H](CO)[C@@H](O)[C@@H]1O` [FLUDARABINE], the 50% inhibitory concentration (IC50) entry (on Estrogen receptor; in test [1]; at D(3) dopamine receptor (cho); in test [2]; in test [3] (mdck); in test [4]) was “Not Active” each time. In addition, on Estrogen receptor beta, the IC50 entry is on record as “Not Active”. Moreover, the inhibition constant (Ki) result in test [1] and in test [4] was “Not Active” throughout.

As to `C[C@H](C(=O)O)c1ccc2oc(-c3ccc(F)cc3)nc2c1` [FLUNOXAPROFEN], the IC50 result (on Estrogen receptor; in test [1]; at D(3) dopamine receptor (cho); in test [2]; in test [3] (mdck); in test [4]) was “Not Active” in each case. Also, the half-maximal inhibitory concentration (IC50) result against Estrogen receptor beta is reported as “Not Active”. Further, the inhibition constant (Ki) result in test [1] and in test [4] was “Not Active” each time.

With `O=C(O)CO` [GLYCOLIC ACID], the IC50 entry (against Estrogen receptor; in test [1]; on D(3) dopamine receptor (cho); in test [2]; in test [3] (mdck); in test [4]) was “Not Active” throughout. In addition, the IC50 entry at Estrogen receptor beta was “Not Active”. Besides, the Ki result in test [1] and in test [4] was “Not Active” in each case.

Take `O=C(O)CNCP(=O)(O)O` [GLYPHOSATE]: the half-maximal inhibitory concentration (IC50) result (at Estrogen receptor; in test [1]; on D(3) dopamine receptor (cho); in test [2]; in test [3] (mdck); in test [4]) was “Not Active” in each case. Moreover, the half-inhibitory concentration (IC50) result against Estrogen receptor beta is “Not Active”. For the same molecule, the Ki result in test [1] and in test [4] was “Not Active” throughout.

In the case of `Clc1cc(Cl)c(OCC#CI)cc1Cl` [HALOPROGIN], the IC50 entry against Estrogen receptor is “Not Active”; in test [1], “Not Active”; at D(3) dopamine receptor (read-out: IC50), 0.488 µM; in test [2], “Not Active”; in test [3] (read-out: IC50), 2.77 µM; in test [4] it was “Not Active”. The IC50 result against Estrogen receptor beta is “Not Active”. Also, the inhibition constant Ki result in test [1] was “Not Active”; on D(3) dopamine receptor, 0.166 µM; in test [3], 2.75 µM; in test [4] it was “Not Active”.

For `COC(=O)C[C@](O)(CCC(C)(C)O)C(=O)O[C@@H]1C(OC)=C[C@]23CCCN2CCc2cc4c(cc2[C@H]13)OCO4` [HARRINGTONINE], the 50% inhibitory concentration (IC50) entry (against Estrogen receptor; in test [1]; at D(3) dopamine receptor (cho); in test [2]; in test [3] (mdck); in test [4]) was “Not Active” throughout. In addition, the IC50 entry on Estrogen receptor beta is reported as “Not Active”. For the same molecule, the Ki result in test [1] and in test [4] was “Not Active” throughout.

With `CC(C)Cn1cnc2c(N)nc3ccccc3c21` [IMIQUIMOD], the IC50 result (at Estrogen receptor; in test [1]; at D(3) dopamine receptor (cho); in test [2]; in test [3] (mdck); in test [4]) was “Not Active” throughout. At Estrogen receptor beta, the half-inhibitory concentration (IC50) entry is on record as “Not Active”. Besides, the Ki result in test [1] and in test [4] was “Not Active” each time.

Turning to `C=CCN1CC[C@]23c4c5ccc(O)c4O[C@H]2/C(=N/N=C2\CC[C@@]4(O)[C@H]6Cc7ccc(O)c8c7[C@@]4(CCN6CC=C)[C@H]2O8)CC[C@@]3(O)[C@H]1C5` [NALOXONAZINE], the half-inhibitory concentration (IC50) result (against Estrogen receptor; in test [1]; on D(3) dopamine receptor (cho); in test [2]; in test [3] (mdck); in test [4]) was “Not Active” in each case. In addition, the IC50 entry against Estrogen receptor beta was “Not Active”. Besides, the inhibition constant (Ki) entry in test [1] and in test [4] was “Not Active” throughout.

As to `O=C1CN(/N=C/c2ccc([N+](=O)[O-])o2)C(=O)N1` [NITROFURANTOIN], the IC50 entry (on Estrogen receptor; in test [1]; at D(3) dopamine receptor (cho); in test [2]; in test [3] (mdck); in test [4]) was “Not Active” in each case. The IC50 result on Estrogen receptor beta is recorded as “Not Active”. The inhibition constant (Ki) result in test [1] and in test [4] was “Not Active” each time.

Consider `O=C(O)CCc1nc(-c2ccccc2)c(-c2ccccc2)o1` [OXAPROZIN], for which the half-maximal inhibitory concentration (IC50) entry (against Estrogen receptor; in test [1]; at D(3) dopamine receptor (cho); in test [2]; in test [3] (mdck); in test [4]) was “Not Active” each time. In addition, the 50% inhibitory concentration (IC50) result at Estrogen receptor beta is on record as “Not Active”. Further, the Ki result in test [1] and in test [4] was “Not Active” each time.

As to `Cc1cc(C(C)(C)C)c(O)c(C)c1CC1=NCCN1` [OXYMETAZOLINE], the IC50 result (against Estrogen receptor; in test [1]; on D(3) dopamine receptor (cho); in test [2]; in test [3] (mdck); in test [4]) was “Not Active” throughout. Also, on Estrogen receptor beta, the IC50 entry was “Not Active”. The inhibition constant (Ki) entry in test [1] and in test [4] was “Not Active” throughout.

`NC(=O)NC(=O)Cc1ccccc1` [PHENACEMIDE]: the IC50 entry (at Estrogen receptor; in test [1]; at D(3) dopamine receptor (cho); in test [2]; in test [3] (mdck); in test [4]) was “Not Active” each time. Besides, on Estrogen receptor beta, the IC50 result is “Not Active”. For the same molecule, the Ki result in test [1] and in test [4] was “Not Active” in each case.

For `CCC1(c2ccccc2)C(=O)NC(=O)NC1=O` [PHENOBARBITAL], the IC50 entry (on Estrogen receptor; in test [1]; on D(3) dopamine receptor (cho); in test [2]; in test [3] (mdck); in test [4]) was “Not Active” in each case. Also, the IC50 entry against Estrogen receptor beta was “Not Active”. The Ki result in test [1] and in test [4] was “Not Active” in each case.

With `c1ccc2c(c1)Nc1ccccc1S2` [PHENOTHIAZINE], the IC50 result against Estrogen receptor is “Not Active”; in test [1], “Not Active”; at D(3) dopamine receptor (cho), “Not Active”; in test [2], “Not Active”; in test [3] (read-out: IC50) it was 0.461 µM; in test [4], “Not Active”. Further, on Estrogen receptor beta, the concentration for half-maximal inhibition (IC50) entry was “Not Active”. Moreover, the inhibition constant (Ki) result is “Not Active” in test [1], 0.457 µM in test [3] and “Not Active” in test [4].

For `CCN1CCN(C(=O)N[C@@H](C(=O)N[C@@H]2C(=O)N3[C@@H]2SC(C)(C)[C@@H]3C(=O)O)c2ccccc2)C(=O)C1=O` [PIPERACILLIN], the IC50 entry (at Estrogen receptor; in test [1]; at D(3) dopamine receptor (cho); in test [2]; in test [3] (mdck); in test [4]) was “Not Active” each time. The IC50 result against Estrogen receptor beta was “Not Active”. Besides, the Ki entry in test [1] and in test [4] was “Not Active” in each case.

On to `COc1cc(NC(C)CCCN)c2ncccc2c1` (stereo unspecified) [PRIMAQUINE], for which the half-maximal inhibitory concentration (IC50) result (against Estrogen receptor; in test [1]; on D(3) dopamine receptor (cho); in test [2]; in test [3] (mdck); in test [4]) was “Not Active” throughout. In addition, the IC50 result against Estrogen receptor beta is on record as “Not Active”. Further, the Ki result in test [1] and in test [4] was “Not Active” throughout.
